# Active and inactive are the calls of the source.
# Experiments:
# cells [1] = test: cells
# Major prion protein = Major prion protein (Homo sapiens, UniProt P04156); type: functional, cell-based
# Vero = test: cells; type: functional; conditions: Chlorocebus sabaeus
# Melanocortin receptor 4 = Melanocortin receptor 4 (Homo sapiens, UniProt P32245); type: functional, cell-based;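 note: Cell-based assay with luminescence read-out, confirmatory dose-response testing for agonist activity of biased ligands at MC4R; human U2OS cells with tagged receptor and beta-arrestin; potency of agonists that increase receptor coupling to beta-arrestin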
# [2] = target: T1, Alkaline phosphatase, tissue-nonspecific isozyme (Homo sapiens, UniProt P05186); test: potency against alkaline phosphatase TNAP – biochemical, luminescent, dose response, SAR follow-up (AID 1056)
# T1 sequence (P05186 whole entry): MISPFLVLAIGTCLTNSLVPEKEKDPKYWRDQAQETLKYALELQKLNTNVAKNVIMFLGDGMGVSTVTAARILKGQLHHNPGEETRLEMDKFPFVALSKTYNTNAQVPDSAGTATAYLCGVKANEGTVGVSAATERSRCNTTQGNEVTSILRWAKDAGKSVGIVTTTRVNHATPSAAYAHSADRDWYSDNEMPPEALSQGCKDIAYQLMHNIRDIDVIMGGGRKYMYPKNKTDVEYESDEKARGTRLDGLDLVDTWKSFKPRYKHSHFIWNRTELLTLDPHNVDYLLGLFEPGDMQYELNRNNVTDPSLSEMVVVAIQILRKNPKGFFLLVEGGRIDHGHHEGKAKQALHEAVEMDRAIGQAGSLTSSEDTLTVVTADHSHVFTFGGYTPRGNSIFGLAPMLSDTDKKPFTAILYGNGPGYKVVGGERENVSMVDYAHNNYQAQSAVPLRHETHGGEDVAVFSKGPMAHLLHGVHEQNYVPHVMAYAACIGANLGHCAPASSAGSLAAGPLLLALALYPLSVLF
# Leucine aminopeptidase = target: T2, Leucine aminopeptidase (Plasmodium falciparum 3D7, UniProt Q8IL11); test: P. falciparum M17LAP inhibitors, primary screen, biochemical, fluorogenic H-Leu-NHMec substrate, 1536-well (AID 1619); type: functional
# T2 sequence (Q8IL11 whole entry): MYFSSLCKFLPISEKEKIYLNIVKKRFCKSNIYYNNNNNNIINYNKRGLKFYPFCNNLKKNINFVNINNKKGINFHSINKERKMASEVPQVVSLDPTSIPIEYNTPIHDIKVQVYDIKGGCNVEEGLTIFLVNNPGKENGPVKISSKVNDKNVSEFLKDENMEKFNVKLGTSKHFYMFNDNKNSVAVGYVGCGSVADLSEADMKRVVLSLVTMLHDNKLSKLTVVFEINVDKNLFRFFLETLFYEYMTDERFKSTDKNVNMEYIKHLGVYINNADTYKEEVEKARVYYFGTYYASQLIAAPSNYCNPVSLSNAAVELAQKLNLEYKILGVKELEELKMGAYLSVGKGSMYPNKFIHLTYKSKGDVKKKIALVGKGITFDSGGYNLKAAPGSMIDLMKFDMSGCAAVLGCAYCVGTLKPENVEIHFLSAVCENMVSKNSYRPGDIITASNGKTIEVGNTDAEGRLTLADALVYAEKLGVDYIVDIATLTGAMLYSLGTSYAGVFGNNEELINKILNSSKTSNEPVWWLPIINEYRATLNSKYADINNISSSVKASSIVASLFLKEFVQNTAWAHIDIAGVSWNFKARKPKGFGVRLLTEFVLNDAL
# [3] = target: Glyceraldehyde-3-phosphate dehydrogenase (Homo sapiens, UniProt P04406)
# cells [4] = test: cells; remark: listed apart in the source
# [5] = viability of uninfected HEp-2 cells – cell-based, HTS, cytotoxicity control for RSV inhibitor project, dose response (AID 2410); type: functional; conditions: human respiratory syncytial virus
# [6] = target: T3, Carboxy-terminal domain RNA polymerase II polypeptide A small phosphatase 1 (Homo sapiens, UniProt Q9GZU7); test: CTDSP1 inhibitors, concentration-response, biochemical, absorbance readout, ultra-high-throughput screen actives (AID 540297); type: functional
# T3 sequence (Q9GZU7 whole entry): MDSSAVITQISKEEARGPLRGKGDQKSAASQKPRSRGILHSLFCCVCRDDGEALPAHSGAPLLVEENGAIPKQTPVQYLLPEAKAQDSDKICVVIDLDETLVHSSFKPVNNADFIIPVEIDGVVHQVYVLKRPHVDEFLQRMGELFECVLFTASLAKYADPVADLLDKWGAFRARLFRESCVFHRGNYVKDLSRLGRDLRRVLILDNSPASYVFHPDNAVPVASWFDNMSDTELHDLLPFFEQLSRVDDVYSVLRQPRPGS
# [7] = luciferase reporter signal suppression in cells – H4 neuroglioma cells, luminescence, dose response (AID 1990); type: functional, cell-based
# [8] = HEK-293T cell viability reduction – luminescence, B-cell screen hits, cytotoxicity control for BCR NF-kB inhibitor project, dose response (AID 489021); type: functional, cell-based;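 note: HEK-293T cells carrying an NF-kB luciferase reporter; cells exposed to compound for about 14 hours before viability readout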
# [9] = alpha-synuclein stem-loop luciferase translation blockers – H4 neuroglioma cells, luminescence, confirmation (AID 1988); type: functional, cell-based
# [10] = Luminescence Cell-Based Dose Response HTS to Identify Inhibitors of 5'UTR Stem-Loop Driven Prion Protein mRNA Translation in H4 Neuroglioblastoma Cells. [Related pubchem assays: 1827 (Project Summary), 1813 (Primary HTS)]; type: functional
# Paired box protein Pax-8 = Paired box protein Pax-8 (Homo sapiens, UniProt Q06710); test: PAX8 transcriptional activity inhibition in RMG-I – RMG-I cells, luciferase, cherry-pick, dose response (AID 687027); type: functional, cell-based;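 note: luciferase reporter driven by Pax8 target thyroperoxidase promoter measured by SteadyGlo luminescence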
# [11] = OVCAR-3 cell viability loss – plate reader, dry powder samples, PAX8 inhibitor project, dose response (AID 743044); type: functional, cell-based
# [12] = non-specific 3'UTR reporter inhibition in Clone20-Shn3RL – cell-based, Renilla luciferase, cherry-picked, counter-screen for Shn3 inhibitor project, dose response (AID 624133); type: functional
# [13] = blockers of HIV-1 ZM109 envelope-driven cell-cell fusion – HeLa effector, CEM target cells, luciferase, cherry-pick, dose response (AID 652058); type: functional, cell-based;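 note: luciferase signal from HIV-1 Env mediated cell-cell fusion of effector and target cells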
# [14] = HIV-1 AD8 envelope cell-cell fusion blockers – cherry-pick, dose response (AID 652062); type: functional, cell-based;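 note: luciferase signal from cell-cell fusion driven by HIV-1 clade B AD8 Env; potency is for inhibitors of fusion seen as a drop in luminescence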
# Cytochrome P450 3A4 = Cytochrome P450 3A4 (Homo sapiens, UniProt P08684);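 note: CYP3A4 tested as one member of a cytochrome P450 panel screen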
# [15] = off-target signal loss in HeLa-CEM21 co-culture – HeLa F-luc CTL cells, cherry-picked, counter-screen for HIV-1 Env fusion inhibitor project, dose response (AID 652040); type: functional, cell-based;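 note: potency for signal decrease marking cytotoxic or nonspecific inhibition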
# [16] = reduction of Shn3 3'UTR-driven luciferase in osteoblasts – cell-based, Clone20 osteoblasts, firefly luciferase, cherry-picked, dose response (AID 624132); type: functional;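 note: firefly luciferase luminescence from reporter carrying the Shn3 3'UTR in osteoblasts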
# [17] = loss of viability in HepG2 cells – cell-based, CellTiter-Glo, cherry-picked, cytotoxicity control for Shn3 inhibitor project, dose response (AID 624134); type: functional
# [18] = A Cell Based Secondary Assay To Explore Cytotoxicity of Compounds that Sensitize Mycobacterium Tuberculosis to Beta-Lactam Antibiotics.; type: functional
# [19] = blockers of HIV-1 envelope-mediated cell-cell fusion – cherry-pick, dose response (AID 652057); type: functional, cell-based
# [20] = NIH-3T3 fibroblast cytotoxicity, dose response, cytotoxicity control, cell-based, fluorescence, Alamar Blue, secondary assay (AID 2327); type: functional;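 note: NIH-3T3 mouse fibroblasts cultured with fluconazole at 8 µg/mL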
# [21] = Trypanosoma cruzi growth suppression in host cells – NIH3T3 host cells, beta-gal luminescence, confirmation (AID 2044); type: functional, cell-based;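 note: intracellular parasites grown in NIH/3T3 mouse fibroblasts as host cells; luminescent beta-galactosidase reporter signal from transgenic T. cruzi replicating inside host cells; inhibitors lower the luminescence signal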
# [22] = fluconazole-exposed Candida albicans growth modulators – fluorescence, retest, confirmation (AID 2467); type: functional, cell-based
# [23] = NIH3T3 cell viability loss – ATP luminescence, mouse fibroblasts, counter-screen, dose response (AID 2010); type: functional, cell-based;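 note: cells exposed to compound for about 90 hours before reading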
# [24] = target: Induced myeloid leukemia cell differentiation protein Mcl-1 (Homo sapiens, UniProt Q07820); type: functional
# [25] = target: Heat shock protein HSP 90-alpha (Homo sapiens, UniProt P07900); type: functional, organism-based
# [26] = target: T4, Heat shock factor protein 1 (Mus musculus, UniProt P38532); test: decrease of HSF1-responsive luciferase luminescence – cell-based, NIH3T3, dose retest, confirmation (AID 2382); type: functional;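 note: NIH3T3 fibroblasts with HSF1-driven luciferase reporter stressed by proteasome inhibitor MG132; luminescence from HSF1-driven luciferase expression after 8 hours of MG132 stress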
# T4 sequence (P38532 whole entry): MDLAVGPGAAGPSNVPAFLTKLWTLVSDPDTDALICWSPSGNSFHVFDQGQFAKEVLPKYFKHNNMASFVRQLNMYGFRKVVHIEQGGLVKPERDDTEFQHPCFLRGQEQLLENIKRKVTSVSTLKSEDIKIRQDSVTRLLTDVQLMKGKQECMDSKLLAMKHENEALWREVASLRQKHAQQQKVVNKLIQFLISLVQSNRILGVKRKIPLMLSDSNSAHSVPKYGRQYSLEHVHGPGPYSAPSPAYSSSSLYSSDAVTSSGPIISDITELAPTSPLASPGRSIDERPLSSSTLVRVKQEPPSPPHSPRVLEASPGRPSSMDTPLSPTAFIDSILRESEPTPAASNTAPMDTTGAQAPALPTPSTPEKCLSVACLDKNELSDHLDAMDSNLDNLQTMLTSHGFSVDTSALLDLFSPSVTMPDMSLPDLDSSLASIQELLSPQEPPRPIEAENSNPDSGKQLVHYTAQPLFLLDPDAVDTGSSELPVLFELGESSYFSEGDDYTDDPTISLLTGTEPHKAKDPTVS
smiles,measurement,setting,value
Cc1ccc(C2C(C#N)=C(N)SC(N)=C2C#N)cc1,IC50,cells [1],> 138 µM (inactive)
same,IC50,Major prion protein,1.86 µM (active)
Cc1ccc(C(=O)Cn2c(C(=O)/C=C/c3ccccc3)nc3ccccc32)cc1,CC50,Vero,16.4 µM (active)
same,EC50,Melanocortin receptor 4,> 89.2 µM (inactive)
Cc1cc2ncn(CC(=O)c3ccc(O)c(O)c3)c2cc1C,IC50,[2],> 100 µM (inactive)
O=C(CN1C(=O)c2ccccc2S1(=O)=O)NCCSCc1ccco1,IC50,Leucine aminopeptidase,16.2 µM (active)
Cc1c(CCO)c(O)oc2nnc(-c3ccccc3)c1-2,IC50,[2],> 100 µM (inactive)
same,IC50,[3],> 100 µM (not active)
COc1ccccc1NC(=O)Nc1ccc2c(c1)CCC2,IC50,cells [4],40.5 µM (active)
same,CC50,[5],46.2 µM (active)
O=C(O)c1cccc(NC(=S)NC(=O)c2ccc(-c3ccc(Cl)cc3)o2)c1,IC50,cells [4],11.4 µM (active)
same,CC50,[5],27.8 µM (active)
COc1ccccc1OCCOc1ccc(/C=C2\C(=N)N3N=C(S(C)(=O)=O)SC3=NC2=O)cc1,CC50,[5],22.5 µM (active)
same,IC50,[6],3.6 µM (active)
COc1ccc2[nH]c(C(=O)Nc3ccc(C)c(F)c3)cc2c1,IC50,cells [1],> 138 µM (inactive)
same,IC50,Major prion protein,10.5 µM (inactive)
COc1cccc(/C=C2/SC(=S)N(CCCC(=O)Nc3ccc(O)cc3)C2=O)c1,EC50,[7],6.72 µM (active)
same,IC50,[8],29 µM (inactive)
same,EC50,[9],16.3 µM (active)
same,EC50,[10],8.15 µM (active)
same,EC50,Melanocortin receptor 4,> 89.2 µM (inactive)
O=C(Nc1nnc(SCC(=O)N2CCCCC2)s1)c1cccs1,IC50,Leucine aminopeptidase,30.4 µM (active)
C[C@H]1CN([C@@H](C)CO)S(=O)(=O)c2ccc(C#Cc3ccc(F)cc3)cc2O[C@@H]1CN(C)C(=O)NC1CCCCC1,AC50,Paired box protein Pax-8,6.32 µM (active)
same,AC50,[11],37.8 µM (active)
COC(=O)c1ccc(C)c(NC(=O)CN2C(=O)c3ccccc3S2(=O)=O)c1,IC50,Leucine aminopeptidase,10 µM (active)
CCN(C(=O)c1cc2cc3ccc(C)cc3nc2o1)c1ccc(OC)cc1,IC50,cells [4],33 µM (active)
same,CC50,[5],> 50 µM (active)
NC(c1csc(NC(=O)Nc2cccc(Cl)c2)n1)C1CCCCC1 (configuration not stated),EC50,Melanocortin receptor 4,> 89.2 µM (inactive)
NNC(=O)c1cc(-c2ccc(Cl)c(Cl)c2Cl)n[nH]1,IC50,[2],0.633 µM (active)
same,IC50,[3],> 10 µM (inconclusive)
OC1(c2ccc(OC(F)F)cc2)CS/C(=N\c2cccnc2)N1C1CC1 (configuration not stated),AC50,[12],29.4 µM (active)
same,AC50,[13],36.4 µM (active)
same,AC50,[14],0.464 µM (active)
same,AC50,Cytochrome P450 3A4,0.794 µM (inconclusive)
same,AC50,[15],> 70 µM (inactive)
same,AC50,[16],5.4 µM (active)
same,AC50,[17],7.56 µM (active)
CCc1nc(SCC(=O)Nc2nc3c(s2)CCCC3)c2ccccc2n1,IC50,cells [1],> 138 µM (inactive)
same,IC50,Major prion protein,6.97 µM (active)
Cn1c(=O)c2nc(CNCc3ccccc3Cl)[nH]c2n(C)c1=O,CC50,[18],> 40 µM (active)
COc1cccc(-c2ccc3c(c2)[C@H]2[C@H](CCN2C(=O)NC2CCCCC2)[C@@H](CO)N3C)c1,AC50,Paired box protein Pax-8,10.6 µM (active)
same,AC50,[11],27.1 µM (active)
CC1CCN(C(=O)c2ncn3c2C(=O)N[C@H](C)C3)CC1,AC50,[19],4.8 µM (active)
same,AC50,[13],26.6 µM (active)
same,AC50,[14],8.4 µM (active)
same,AC50,[15],16.1 µM (active)
Oc1ccc(N2CCN(c3ncnc4sc(-c5ccccc5)cc34)CC2)cc1,EC50,[20],> 160 µM (inactive)
same,EC50,[21],3.78 µM (active)
same,EC50,[22],1.21 µM (active)
same,EC50,[23],> 60 µM (not active)
same,IC50,[24],1.43 µM (active)
same,EC50,Melanocortin receptor 4,> 89.2 µM (inactive)
Cn1c(=O)cc(OCCCC(=O)NCc2ccccn2)c2ccccc21,IC50,[8],> 80 µM (inactive)
CN(C)CCC/N=C/c1c(-c2ccccc2)nn(-c2nc3ccccc3s2)c1O,IC50,[8],> 80 µM (inactive)
O=C(O)c1cccc(C(=O)Cc2ccccc2)c1,IC50,Leucine aminopeptidase,17.5 µM (active)
CN(C)S(=O)(=O)Oc1ccsc1C(=O)Nc1ccc(C(F)(F)F)cc1,CC50,[18],> 40 µM (active)
CC(C)(C)c1nn(-c2ccccc2)c2nc(O)c(CNc3ccc4c(c3)OCCO4)cc12,CC50,[18],> 40 µM (active)
same,AC50,[25],8.3 µM (active)
same,EC50,[26],83.3 µM (active)
Fc1cccc(Cc2c(-c3ccco3)nc3ccc(Br)cn23)c1,IC50,cells [1],> 138 µM (inactive)
same,IC50,Major prion protein,6.29 µM (active)
C=CCN1C(=O)NC(=O)/C(=C(\C)NC(C)c2ccccc2)C1=O (configuration not stated),IC50,[8],> 80 µM (inactive)
CCOC(=O)[C@@H]1[C@H]2COc3ccc(Br)cc3[C@@H]2N2C(=O)N(c3ccccc3)C(=O)[C@@]12C,AC50,[19],2.15 µM (active)
same,AC50,[13],6.14 µM (active)
same,AC50,[14],22.9 µM (active)
same,AC50,[15],5.09 µM (active)
Cn1nc(-c2ccc(Cl)cc2)c2cc(C(=O)N3CCCC3)sc21,IC50,[8],> 80 µM (inactive)

# — ChEMBL document CHEMBL1201862, “PubChem BioAssay data set” (2004)
